Laboratory results as given in patent publication US20130065818A1, “Arylamide Compounds And Compositions And Uses Thereof” (POLYMEDIX, priority 2006, published 2013).
In brackets after ≈: the same amount, converted by molar mass. Read-outs that look alike come from different tables or passages of the source.

Tests used:
[1] = test system: Streptococcus viridans group; test: MIC, 25 ocular isolates, broth microdilution (Example 8); format: cell-based
[2] = test system: Staphylococcus aureus fluoroquinolone-susceptible; test: as above; format: cell-based
In short: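 Broth microdilution in Mueller-Hinton broth, polypropylene plates, inoculum from 0.5 McFarland suspension diluted 0.05 ml into 5 ml; final test agent 64–0.0625 μg/ml (128–0.125 μg/ml for P. aeruginosa) in 0.01% acetic acid, 0.2% BSA diluent. Incubated 37° C overnight; MIC read visually as lowest concentration inhibiting visible growth.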

## N=C(N)NCCCCC(=O)Nc1cc(C(F)(F)F)cc(NC(=O)c2cnc(C(=O)Nc3cc(C(F)(F)F)cc(NC(=O)CCCCNC(=N)N)c3SCCN)cn2)c1SCCN [Oligomer 5]
[1]; 25 isolates, Row 13
  MIC50: 16 µg/mL (≈ 17.4 µM)
[1]; 25 isolates, Row 22, >64 was Replaced with 128
  MIC90: 128 µg/mL (≈ 140 µM)
[1]; 25 isolates, Summary of Results, >64 was Replaced with 128
  Range of MICs: 0.5 to 128 µg/mL
[1]; Streptococcus viridans, 25 ocular isolates, Mueller-Hinton broth with 2% lysed horse red blood cells, read-out: Median MIC
  MIC: 16 µg/mL (≈ 17.4 µM)
[1]; Streptococcus viridans, isolate 1—K1684, read-out: MIC
  MIC: 8 µg/mL (≈ 8.72 µM)
[1]; Streptococcus viridans, isolate 2—K1680, read-out: MIC
  MIC: 64 µg/mL (≈ 69.8 µM)
[1]; Streptococcus viridans, isolate 3—E546, read-out: MIC
  MIC: 8 µg/mL (≈ 8.72 µM)
[1]; Streptococcus viridans, isolate 4—E272, read-out: MIC
  MIC: 16 µg/mL (≈ 17.4 µM)
[1]; Streptococcus viridans, isolate 5—E506, read-out: MIC
  MIC: > 64 µg/mL
[1]; Streptococcus viridans, isolate 6—E496, read-out: MIC
  MIC: 0.5 µg/mL (≈ 0.545 µM)
[1]; Streptococcus viridans, isolate 7—E456, read-out: MIC
  MIC: 16 µg/mL (≈ 17.4 µM)
[1]; Streptococcus viridans, isolate 8—E432, read-out: MIC
  MIC: 8 µg/mL (≈ 8.72 µM)
[1]; Streptococcus viridans, isolate 9—E423, read-out: MIC
  MIC: > 64 µg/mL
[1]; Streptococcus viridans, isolate 10—E418, read-out: MIC
  MIC: > 64 µg/mL
[1]; Streptococcus viridans, isolate 11—E412, read-out: MIC
  MIC: 8 µg/mL (≈ 8.72 µM)
[1]; Streptococcus viridans, isolate 12—E409, read-out: MIC
  MIC: 32 µg/mL (≈ 34.9 µM)
[1]; Streptococcus viridans, isolate 13—E405, read-out: MIC
  MIC: > 64 µg/mL
[1]; Streptococcus viridans, isolate 14—E404, read-out: MIC
  MIC: > 64 µg/mL
[1]; Streptococcus viridans, isolate 15—E396, read-out: MIC
  MIC: 32 µg/mL (≈ 34.9 µM)
[1]; Streptococcus viridans, isolate 16—E262, read-out: MIC
  MIC: 4 µg/mL (≈ 4.36 µM)
[1]; Streptococcus viridans, isolate 17—E362, read-out: MIC
  MIC: 16 µg/mL (≈ 17.4 µM)
[1]; Streptococcus viridans, isolate 18—E359, read-out: MIC
  MIC: 32 µg/mL (≈ 34.9 µM)
[1]; Streptococcus viridans, isolate 19—E348, read-out: MIC
  MIC: 16 µg/mL (≈ 17.4 µM)
[1]; Streptococcus viridans, isolate 20—E344, read-out: MIC
  MIC: 4 µg/mL (≈ 4.36 µM)
[1]; Streptococcus viridans, isolate 21—E308, read-out: MIC
  MIC: 4 µg/mL (≈ 4.36 µM)
[1]; Streptococcus viridans, isolate 22—E294, read-out: MIC
  MIC: 2 µg/mL (≈ 2.18 µM)
[1]; Streptococcus viridans, isolate 23—E292, read-out: MIC
  MIC: 0.5 µg/mL (≈ 0.545 µM)
[1]; Streptococcus viridans, isolate 24—E285, read-out: MIC
  MIC: 0.5 µg/mL (≈ 0.545 µM)
[1]; Streptococcus viridans, isolate 25—E265, read-out: MIC
  MIC: 8 µg/mL (≈ 8.72 µM)
[1]; Streptococcus viridans, n=25 per group, read-out: Median MIC
  MIC: 16 µg/mL (≈ 17.4 µM)
[1]; Streptococcus viridans, 25 isolates, Summary of Results, >64 was Replaced with 128, read-out: MIC90
  MIC90: 128 µg/mL (≈ 140 µM)
[1]; Streptococcus viridans, 25 isolates, Summary of Results, read-out: MIC50
  MIC50: 16 µg/mL (≈ 17.4 µM)
[1]; Streptococcus viridans, 25 isolates, Summary of Results, read-out: Median MIC
  MIC: 16 µg/mL (≈ 17.4 µM)
[1]; n=25 per group
  MIC50: 16 µg/mL (≈ 17.4 µM)
  MIC90: 128 µg/mL (≈ 140 µM)
  Range of MICs: 0.5 to 128 µg/mL
[2]; 25 isolates, Row 13
  MIC50: 0.25 µg/mL (≈ 0.273 µM)
[2]; 25 isolates, Row 22
  MIC90: 0.25 µg/mL (≈ 0.273 µM)
[2]; 25 isolates, Summary of Results
  Range of MICs: 0.125 to 0.5 µg/mL
[2]; Staphylococcus aureus, 25 ocular isolates, read-out: Median MIC
  MIC: ≤ 0.25 µg/mL
[2]; Staphylococcus aureus, isolate 1—E402, read-out: MIC
  MIC: 0.5 µg/mL (≈ 0.545 µM)
[2]; Staphylococcus aureus, isolate 2—E1512, read-out: MIC
  MIC: 0.25 µg/mL (≈ 0.273 µM)
[2]; Staphylococcus aureus, isolate 3—E253, read-out: MIC
  MIC: 0.25 µg/mL (≈ 0.273 µM)
[2]; Staphylococcus aureus, isolate 4—K1518, read-out: MIC
  MIC: 0.125 µg/mL (≈ 0.136 µM)
[2]; Staphylococcus aureus, isolate 5—K1525, read-out: MIC
  MIC: 0.125 µg/mL (≈ 0.136 µM)
[2]; Staphylococcus aureus, isolate 6—K1663, read-out: MIC
  MIC: 0.125 µg/mL (≈ 0.136 µM)
[2]; Staphylococcus aureus, isolate 7—K1648, read-out: MIC
  MIC: 0.125 µg/mL (≈ 0.136 µM)
[2]; Staphylococcus aureus, isolate 8—K1646, read-out: MIC
  MIC: 0.25 µg/mL (≈ 0.273 µM)
[2]; Staphylococcus aureus, isolate 9—K1642, read-out: MIC
  MIC: 0.25 µg/mL (≈ 0.273 µM)
[2]; Staphylococcus aureus, isolate 10—K1638, read-out: MIC
  MIC: 0.25 µg/mL (≈ 0.273 µM)
[2]; Staphylococcus aureus, isolate 11—K1628, read-out: MIC
  MIC: 0.25 µg/mL (≈ 0.273 µM)
[2]; Staphylococcus aureus, isolate 12—K1618, read-out: MIC
  MIC: 0.125 µg/mL (≈ 0.136 µM)
[2]; Staphylococcus aureus, isolate 13—K1617, read-out: MIC
  MIC: 0.25 µg/mL (≈ 0.273 µM)
[2]; Staphylococcus aureus, isolate 14—K1611, read-out: MIC
  MIC: 0.25 µg/mL (≈ 0.273 µM)
[2]; Staphylococcus aureus, isolate 15—K1607, read-out: MIC
  MIC: 0.25 µg/mL (≈ 0.273 µM)
[2]; Staphylococcus aureus, isolate 16—K1600, read-out: MIC
  MIC: 0.125 µg/mL (≈ 0.136 µM)
[2]; Staphylococcus aureus, isolate 17—K1591, read-out: MIC
  MIC: 0.5 µg/mL (≈ 0.545 µM)
[2]; Staphylococcus aureus, isolate 18—K1585, read-out: MIC
  MIC: 0.25 µg/mL (≈ 0.273 µM)
[2]; Staphylococcus aureus, isolate 19—K1583, read-out: MIC
  MIC: 0.25 µg/mL (≈ 0.273 µM)
[2]; Staphylococcus aureus, isolate 20—K1574, read-out: MIC
  MIC: 0.25 µg/mL (≈ 0.273 µM)
[2]; Staphylococcus aureus, isolate 21—K1566, read-out: MIC
  MIC: 0.25 µg/mL (≈ 0.273 µM)
[2]; Staphylococcus aureus, isolate 22—K1551, read-out: MIC
  MIC: 0.125 µg/mL (≈ 0.136 µM)
[2]; Staphylococcus aureus, isolate 23—K1545, read-out: MIC
  MIC: 0.25 µg/mL (≈ 0.273 µM)
[2]; Staphylococcus aureus, isolate 24—K1540, read-out: MIC
  MIC: 0.25 µg/mL (≈ 0.273 µM)
[2]; Staphylococcus aureus, isolate 25—K1530, read-out: MIC
  MIC: 0.5 µg/mL (≈ 0.545 µM)
[2]; Staphylococcus aureus, n=25 per group, read-out: Median MIC
  MIC: 0.25 µg/mL (≈ 0.273 µM)
[2]; Staphylococcus aureus, 25 isolates, Summary of Results, read-out: MIC50
  MIC50: 0.25 µg/mL (≈ 0.273 µM)
[2]; Staphylococcus aureus, 25 isolates, Summary of Results, read-out: MIC90
  MIC90: 0.5 µg/mL (≈ 0.545 µM)
[2]; Staphylococcus aureus, 25 isolates, Summary of Results, read-out: Median MIC
  MIC: 0.25 µg/mL (≈ 0.273 µM)
[2]; n=25 per group
  MIC50: 0.25 µg/mL (≈ 0.273 µM)
  MIC90: 0.5 µg/mL (≈ 0.545 µM)
  Range of MICs: 0.125 to 0.5 µg/mL
